# Measurements reported in patent publication US4499104A, “Imidazole compound, the process for its preparation, and therapeutically active compositions containing same” (priority 1976, dated 1985).
# Key:
# [1] = Edema by carrageen in normal and adrenoprival (suprarenectomised) rats; assay type: in vivo, rat; set-up: Edema by carrageen: unit not given beside the values
# Procedure: A 1% physiological solution of carrageen was used. Rats of the Wistar-Roux-Ocefa stock having a weight of 150±30 g were used. The drugs were suspended in 1% carboxymethylcellulose or dissolved in distilled water and administered orally one hour before the inflammatory agent in a volume of 0.5 ml/100 g. The carrageen was adminstered subcutaneously in the subplanetary region of one of the rear paws. The volume of the paw was measured platysmagraphically initially and then after 1.5 hour, 3 hours and 5 hours after administering the carrageen. One inflammation unit was defined as the displacement of 0.01 ml of Hg.
# The edema was evaluated as the difference in volume of the rear paw before and after the carrageen. The DE 50 was calculated by the probits method and graphically. The comparison drugs used were phenylbutazone and niflumic acid.
# To evaluate if the activity of the chlorophenazole on edema by carrageen was influenced by stimulation of the suprarenes, experiments were carried out with suprarenectomised rats. Normal rats were also compared with falsely operated rats to evaluate the influence of the operational trauma.
# [2] = Antipyretic activity, hyperthermia by lysate of Neisseria perflava in rabbit; assay type: in vivo, male albino rabbits; settings: oral
# Procedure: This was first studied in the rabbit, using 6 male albino rabbits of 3-3.5 kg per group, made hyperthermal by i.v. injection of 0.5 ml/kg of a lysate of Neisseria perflava. The rectal temperature was determined by thermocouples every 60 minutes for 3 hours. The difference in temperature was calculated between maximum elevation and base temperature at each time. The drug was administered orally.
# [3] = Antipyretic activity, hyperthermia by beer yeast in rat; assay type: in vivo, Wistar stock; settings: oral, 1/10 of DL50; chlorophenazole 50 mg/kg, phenylbutazone 35 mg/kg
# Procedure: It was then measured in the rat using 10 animals of Wistar stock per group weighing 170-200 g, made hyperthermal by subcutaneous injection of a 10% beer yeast suspension in distilled water.
# The compounds awere administered orally 60 minutes after the induction of fever in doses equal to 1/10 of the DL50. Readings were taken at 30 minute intervals for 5 hours.
# [4] = Action on sleep by barbiturates; assay type: in vivo, Wistar-Ocefa rats
# Procedure: […] Loss of the redressment reflex was taken to indicate commencement of sleep. The chlorophenazone was administered orally with a dose of 1/10 of the DL50. The induction time and the duration of sleep were measured.
# [5] = Anticonvulsive activity against cardiazole; assay type: in vivo, Rockland-Ocefa mice; settings: for Protection from convulsivant cardiazole, first value: first of two values; for Protection from convulsivant cardiazole, second value: second of two values
# Procedure: Rockland-Ocefa mice of both sexes weighing 22±3 g and fasting for 16 hours were used.
# [6] = Anticonvulsive activity against strychnine; assay type: in vivo, Rockland-Ocefa mice; settings: for Protection from convulsivant strychnine, first value: first of two values; for Protection from convulsivant strychnine, second value: second of two values
# Procedure: Rockland-Ocefa mice of both sexes weighing 22±3 g and fasting for 16 hours were used. The convulsive agents were administered i.p. in doses of 2 mg/kg of strychnine sulphate and 110 mg/kg of cardiazole.
# [7] = Acute toxicity, mouse; settings: in vivo, read-out: DL50 and L.F.
# [8] = system: Rabbit; assay: Acute toxicity, rabbit; assay type: in vivo; settings: intravenous injection
# Procedure: (b) Rabbit: by intravenous injection DL100 =55 mg/kg
# [9] = system: Dog; assay: Acute toxicity, dog; assay type: in vivo
# [10] = system: rats; assay: Chronic toxicity, first experiment (60 days); assay type: in vivo, Wistar-Ocefa rats; settings: 60 days
# Procedure: (§1) Wistar-Ocefa rats of both sexes weighing 70-90 g were used, divided into groups of 30 animals (15 males and 15 females) to a total of […].
# (§2) Chlorophenazole and phenylbutazone (reference drug) were administered orally for a period of 60 days in doses of 30-60 mg/kg of chlorophenazole and 8-160 mg/kg of phenylbutazone (first experiment) and for a period of 5 months in doses of 6-12 mg/kg of chlorophenazole and 16 mg/kg of phenylbutazone (second experiment).
# (§3) The following parameters were determined periodically: behavior, general state, food consumption, body weight, red blood cell number, white blood cell number, leucocite formula, hemoglobin, hematocrit, globular value, total proteins, glycemia, azotemia, cholesterol, total lipids, triglycerides, creatinine, GOT, GPT, urine analysis. At the end of the experiment the animals were sacrificed, their general state was observed, the following organs were weighed: liver, spleen, kidneys, supranenes, ovary and testicles, lungs, heart, stomach.
# [11] = system: rats; assay: Chronic toxicity, second experiment (5 months); assay type: in vivo, Wistar-Ocefa rats; settings: for cholesterol: male rats
# Procedure: as §1, §2, §3
# [12] = system: human; assay: Human therapy; assay type: in vivo
# [13] = system: Rat; settings: in vivo
# [14] = in vivo; settings: rat
# [15] = chlorophenazole 51.5 mg/kg oral + pentobarbital sodium 20 mg/kg
compound,measurement,setting,value
"Cc1[nH]cnc1-c1ccc(Cl)cc1 [Chlorophenazole, 4-(p-chlorophenyl)-5-methylimidazole]",dependence of activity on the suprarenal cortex,[1]; adrenoprival rats,independent of the suprarenal cortex
same,Edema by carrageen,"[1]; adrenoprival rats, 10 mg/kg, 1.5 hours",22
same,Edema by carrageen,"[1]; adrenoprival rats, 10 mg/kg, 3 hours",27
same,Edema by carrageen,"[1]; adrenoprival rats, 10 mg/kg, 5 hours",55
same,Edema by carrageen,"[1]; adrenoprival rats, 20 mg/kg, 1.5 hours",16
same,Edema by carrageen,"[1]; adrenoprival rats, 20 mg/kg, 3 hours",18
same,Edema by carrageen,"[1]; adrenoprival rats, 20 mg/kg, 5 hours",45
same,Edema by carrageen,"[1]; adrenoprival rats, 40 mg/kg, 1.5 hours",13
same,Edema by carrageen,"[1]; adrenoprival rats, 40 mg/kg, 3 hours",20
same,Edema by carrageen,"[1]; adrenoprival rats, 40 mg/kg, 5 hours",39
same,Edema by carrageen,"[1]; normal rats, 10 mg/kg, 1.5 hours",15
same,Edema by carrageen,"[1]; normal rats, 10 mg/kg, 3 hours",35
same,Edema by carrageen,"[1]; normal rats, 10 mg/kg, 5 hours",58
same,Edema by carrageen,"[1]; normal rats, 20 mg/kg, 1.5 hours",15
same,Edema by carrageen,"[1]; normal rats, 20 mg/kg, 3 hours",29
same,Edema by carrageen,"[1]; normal rats, 20 mg/kg, 5 hours",44
same,Edema by carrageen,"[1]; normal rats, 40 mg/kg, 1.5 hours",15
same,Edema by carrageen,"[1]; normal rats, 40 mg/kg, 3 hours",23
same,Edema by carrageen,"[1]; normal rats, 40 mg/kg, 5 hours",42
same,protection from temperature increase,[2],clearly protected the animals from temperature increase
same,antipyretic activity relative to phenylbutazone,[3],superiority over phenylbutazone
same,action on sleep by barbiturates,[4]; 1/10 of the DL50 oral,improves sleep by barbiturates
same,Induction time,[4]; [15],2.9 min
same,Sleeping time,[4]; [15],65.2 min
same,"Protection from convulsivant cardiazole, first value","[5]; 50 mg/kg, 15'",6.23
same,"Protection from convulsivant cardiazole, second value","[5]; 50 mg/kg, 15'",6.70
same,"Protection from convulsivant cardiazole, first value","[5]; 50 mg/kg, 30'",10.80
same,"Protection from convulsivant cardiazole, second value","[5]; 50 mg/kg, 30'",8.30
same,"Protection from convulsivant cardiazole, first value","[5]; 50 mg/kg, 90'",8.10
same,"Protection from convulsivant cardiazole, second value","[5]; 50 mg/kg, 90'",7.0
same,"Protection from convulsivant cardiazole, first value","[5]; 100 mg/kg, 15'",9.90
same,"Protection from convulsivant cardiazole, second value","[5]; 100 mg/kg, 15'",8.90
same,"Protection from convulsivant cardiazole, first value","[5]; 100 mg/kg, 30'",13.00
same,"Protection from convulsivant cardiazole, second value","[5]; 100 mg/kg, 30'",26.40
same,"Protection from convulsivant cardiazole, first value","[5]; 100 mg/kg, 90'",28.70
same,"Protection from convulsivant cardiazole, second value","[5]; 100 mg/kg, 90'",20.00
same,"Protection from convulsivant cardiazole, second value","[5]; 200 mg/kg, 15'",9.2
same,"Protection from convulsivant cardiazole, second value","[5]; 200 mg/kg, 30'",27.30
same,"Protection from convulsivant cardiazole, second value","[5]; 200 mg/kg, 90'",30.10
same,framework of convulsive death,[5]; cardiazole and strychnine,does not modify the framework of convulsive death
same,premortal period,[5]; cardiazole and strychnine,significant elongation of the premortal period
same,"Protection from convulsivant strychnine, first value","[6]; 50 mg/kg, 15'",7.0
same,"Protection from convulsivant strychnine, second value","[6]; 50 mg/kg, 15'",7.4
same,"Protection from convulsivant strychnine, first value","[6]; 50 mg/kg, 30'",12.8
same,"Protection from convulsivant strychnine, second value","[6]; 50 mg/kg, 30'",12.6
same,"Protection from convulsivant strychnine, first value","[6]; 50 mg/kg, 90'",8.7
same,"Protection from convulsivant strychnine, second value","[6]; 50 mg/kg, 90'",13.8
same,"Protection from convulsivant strychnine, first value","[6]; 100 mg/kg, 15'",11.7
same,"Protection from convulsivant strychnine, second value","[6]; 100 mg/kg, 15'",19.5
same,"Protection from convulsivant strychnine, first value","[6]; 100 mg/kg, 30'",11.3
same,"Protection from convulsivant strychnine, second value","[6]; 100 mg/kg, 30'",13.8
same,"Protection from convulsivant strychnine, first value","[6]; 100 mg/kg, 90'",9.5
same,"Protection from convulsivant strychnine, second value","[6]; 100 mg/kg, 90'",11.5
same,"Protection from convulsivant strychnine, first value","[6]; 200 mg/kg, 15'",28.6
same,"Protection from convulsivant strychnine, second value","[6]; 200 mg/kg, 15'",18.3
same,"Protection from convulsivant strychnine, first value","[6]; 200 mg/kg, 30'",12.8
same,"Protection from convulsivant strychnine, second value","[6]; 200 mg/kg, 30'",16.0
same,"Protection from convulsivant strychnine, first value","[6]; 200 mg/kg, 90'",18.2
same,"Protection from convulsivant strychnine, second value","[6]; 200 mg/kg, 90'",21.0
same,LD50,[7]; ip,175 mg/kg
same,LD50,"[7]; po, os",534 mg/kg
same,DL100,[8],55 mg/kg
same,final framework (symptoms),[8],"marked muscular hypotonia, an almost catatonic state and death by respiratory paralysis"
same,DL100,[9],50 mg/kg
same,stomach appearance,[10],distended and rose colored
same,cholesterol,[10]; larger doses,the same for cholesterol at the larger doses
same,cholesterol,[11]; 6 mg/kg,significant alteration
same,glycemia,"[11]; 12 mg/kg, female rats",small increase in glycemia
same,cholesterol,[11]; greater dose,not confirmed with the greater dose
same,pharmacological results in human therapy,[12],fully confirmed in human therapy
same,toxicity relative to niflumic acid,[13],much less toxic than the latter
same,LD50,[14]; ip,135 mg/kg
same,LD50,[14]; po,515 mg/kg
